Among the data in patent US6939565B2, “Protease inhibitors of the coagulation cascade isolated from Dysidea sponges” (Pharmacia Corporation, priority 2001, dated 2005) are IC50 values, retold here.

pIC50: −log10 of the molar value.

Common to all, as to type: biochemical
Assay [1] addresses T1, TF/VIIa (Homo sapiens, UniProt P08709).
T1 construct: recombinant human factor VIIa
The assay can be described thus: Factor VIIa/TF inhibitory assay (chromogenic substrate, OD 405 nm). The following applies: recombinant human factor VIIa with recombinant soluble tissue factor. On the procedure: To determine inhibitory activity, the compound having structure (1) was combined with recombinant human factor VIIa in black clear bottom well plates followed by a 10 minute room temperature incubation. Recombinant soluble tissue factor was then added followed by a 15 minute room temperature incubation. Finally, chromozymen tPA substrate was added and the plates were immediately read at 405 nm to determine background absorbance. After incubation, the rate of hydrolysis of the substrate was measured by monitoring the reaction at 405 nm for the release of p-nitroaniline. Percent inhibition of TF/VIIa activity was calculated from OD 405 nm value from the experimental and control sample. All hits 50% of control and less were confirmed and requested for IC50 values.
(§1) An aliquot of sample was injected onto C18 reversed-phase column with flow rate of 1 mL/min. Mass spectra were recorded from 150 to 1000 amu in both positive and negative modes using electrospray ionization. A splitter was attached immediately after the HPLC column so that a fraction of the eluent was directed towards the electrospray source. The remaining fraction was collected in deep-well plates. The plates were dried overnight and biassayed.

The target of assay [2] is T2, Thrombin (Homo sapiens, UniProt P00734).
T2 construct: Xa with factor Va converts prothrombin (II) to thrombin (IIa)
Kind of assay: HPLC-PDA-MS-bioassay, thrombin inhibition. On the procedure: as §1

Assay [3] addresses Xa (Homo sapiens, UniProt P00742). The assay can be described thus: HPLC-PDA-MS-bioassay, factor Xa inhibition. Here is the method:
as §1

The subject of assay [4] is Trypsin. Kind of assay: HPLC-PDA-MS-bioassay, trypsin inhibition. On the procedure: as §1

Sequence of Xa (P00742 41-179 limits assumed): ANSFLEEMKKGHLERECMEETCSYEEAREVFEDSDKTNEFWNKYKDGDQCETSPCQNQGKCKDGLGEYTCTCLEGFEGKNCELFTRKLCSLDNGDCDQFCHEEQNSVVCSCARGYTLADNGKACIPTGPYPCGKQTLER
Sequence of Xa (P00742 235-488 limits assumed): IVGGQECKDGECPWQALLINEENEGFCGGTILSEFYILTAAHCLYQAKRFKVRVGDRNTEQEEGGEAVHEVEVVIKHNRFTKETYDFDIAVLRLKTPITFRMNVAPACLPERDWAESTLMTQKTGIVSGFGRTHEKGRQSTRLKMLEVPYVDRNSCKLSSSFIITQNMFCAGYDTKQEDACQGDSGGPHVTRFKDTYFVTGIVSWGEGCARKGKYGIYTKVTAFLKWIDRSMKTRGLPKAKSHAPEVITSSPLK
T1 sequence (P08709 61-212 limits assumed): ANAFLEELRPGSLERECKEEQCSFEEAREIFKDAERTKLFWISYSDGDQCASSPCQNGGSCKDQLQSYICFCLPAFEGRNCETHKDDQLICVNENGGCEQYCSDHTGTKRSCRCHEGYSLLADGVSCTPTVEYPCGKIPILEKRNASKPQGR
T1 sequence (P08709 213-466 limits assumed): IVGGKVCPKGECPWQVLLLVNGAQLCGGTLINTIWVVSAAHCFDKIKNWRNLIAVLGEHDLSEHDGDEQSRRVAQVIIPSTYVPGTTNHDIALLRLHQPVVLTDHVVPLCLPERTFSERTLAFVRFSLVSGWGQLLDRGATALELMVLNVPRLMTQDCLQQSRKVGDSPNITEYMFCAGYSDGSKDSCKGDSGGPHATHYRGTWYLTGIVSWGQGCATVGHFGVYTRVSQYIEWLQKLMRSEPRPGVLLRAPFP
T1 sequence (P13726 33-251 partner limits assumed): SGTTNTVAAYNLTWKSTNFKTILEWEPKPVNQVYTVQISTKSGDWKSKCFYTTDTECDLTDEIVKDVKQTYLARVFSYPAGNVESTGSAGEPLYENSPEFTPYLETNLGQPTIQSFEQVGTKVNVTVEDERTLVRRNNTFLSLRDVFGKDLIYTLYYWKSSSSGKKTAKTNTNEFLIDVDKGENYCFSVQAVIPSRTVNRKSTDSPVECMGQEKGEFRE

`COC(COS(=O)(=O)O)C(=O)NC(C(=O)N1C(C(=O)NCCC2=CCN(C(=N)N)C2)CC2CC(O)C(O)CC21)C(Cl)C(C)C` (stereo not shown) [Structure 1]: the negative-log IC50 (pIC50) in assay [1] is 8.05; in assay [2], 8.40; in assay [3], 6.70; in assay [4] it was 7.43.
